The source of these data is PMC2782732 (ACS chemical biology, 2008).

In this assay the target is dengue E protein (Dengue virus type 2, UniProt P12823). Format: binding. As to conditions: BOG plus dengue E protein, on-resonance irradiation at −2 ppm.

Each structure is given as a SMILES string.

`CCCCCCCCO[C@@H]1O[C@H](CO)[C@@H](O)[C@H](O)[C@H]1O` [BOG, N-octyl-β-D-glucoside]: the “STD NMR signal of ligand with E protein” value was “strong signals”.
